Measured values published in ChEMBL document CHEMBL5390235, “Reading and erasing of histone crotonyllysine mimics by the AF9 YEATS domain and SIRT2 deacylase” (Bioorg Med Chem, 2023).
pKd: −log10 of the molar value. Active and inactive are the calls of the source. No cut-off for these calls is given here.

Assays:
Protein AF-9 = target: T1, Protein AF-9 (Homo sapiens, UniProt P42568); assay: Binding affinity to N-terminal His-tagged recombinant human AF9 YEATS domain (1 to 138 residues) expressed in Escherichia coli 2(DE3)pLysS cells assessed as dissociation constant by ITC assay
T1 sequence (P42568 whole entry): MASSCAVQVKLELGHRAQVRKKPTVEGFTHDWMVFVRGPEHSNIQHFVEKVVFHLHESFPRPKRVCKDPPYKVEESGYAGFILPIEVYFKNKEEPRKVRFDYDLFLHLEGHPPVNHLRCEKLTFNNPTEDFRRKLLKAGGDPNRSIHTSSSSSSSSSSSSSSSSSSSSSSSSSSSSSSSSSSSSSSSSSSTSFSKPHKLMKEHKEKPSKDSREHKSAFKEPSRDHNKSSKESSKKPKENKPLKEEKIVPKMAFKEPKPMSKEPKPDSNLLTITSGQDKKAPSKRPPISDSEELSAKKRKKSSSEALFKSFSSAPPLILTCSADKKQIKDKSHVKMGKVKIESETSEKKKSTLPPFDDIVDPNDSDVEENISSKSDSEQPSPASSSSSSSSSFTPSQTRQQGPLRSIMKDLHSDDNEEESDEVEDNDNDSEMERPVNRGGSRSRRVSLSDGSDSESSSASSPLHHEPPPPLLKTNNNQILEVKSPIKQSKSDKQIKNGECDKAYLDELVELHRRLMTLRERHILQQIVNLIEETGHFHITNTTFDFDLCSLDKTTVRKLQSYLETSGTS

[1] = target: T2, NAD-dependent protein deacetylase sirtuin-2 (Homo sapiens) (UniProt Q8IXJ6); assay: Induction of recombinant human SIRT2 (50 to 356 residues) deacetylase activity measured after 6 hrs in presence of NAD+ by MALDI-TOF-MS analysis; design: concentration or dose not given beside the values
T2 sequence (whole entry): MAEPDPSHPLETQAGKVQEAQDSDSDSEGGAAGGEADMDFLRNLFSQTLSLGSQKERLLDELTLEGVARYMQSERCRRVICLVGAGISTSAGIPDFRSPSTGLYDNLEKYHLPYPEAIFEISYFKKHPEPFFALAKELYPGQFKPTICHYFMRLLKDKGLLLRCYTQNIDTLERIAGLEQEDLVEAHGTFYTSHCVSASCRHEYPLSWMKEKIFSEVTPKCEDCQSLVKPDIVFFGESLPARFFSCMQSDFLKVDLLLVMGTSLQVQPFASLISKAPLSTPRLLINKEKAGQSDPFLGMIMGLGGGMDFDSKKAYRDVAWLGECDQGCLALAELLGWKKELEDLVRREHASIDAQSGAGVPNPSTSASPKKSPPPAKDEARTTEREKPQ

[2] = target: T2, NAD-dependent protein deacetylase sirtuin-2 (Homo sapiens); assay: Induction of recombinant human SIRT2 (50 to 356 residues) deacetylase activity measured after 24 hrs in presence of NAD+ by MALDI-TOF-MS analysis

Compound	pKd (Protein AF-9)	Activity [1]	Activity [2]	Activity ([1]; filed as activator)	Activity ([2]; filed as activator)
CC(C)=CC(=O)NCCCC[C@H](NC(=O)[C@H](CCCNC(=N)N)NC(=O)[C@H](C)NC(=O)[C@@H](NC(=O)[C@H](CCC(N)=O)NC(=O)[C@H](CCCCN)NC(=O)[C@@H](N)[C@@H](C)O)[C@@H](C)O)C(=O)N[C@@H](CO)C(=O)N[C@H](C(=O)NCC(=O)NCC(=O)N[C@@H](CCCCN)C(=O)N[C@@H](C)C(=O)O)[C@@H](C)O	3.80	2%	12%	–	–
C[C@H](NC(=O)[C@H](CCCCN)NC(=O)CNC(=O)CNC(=O)[C@@H](NC(=O)[C@H](CO)NC(=O)[C@H](CCCCNC(=O)/C=C/C(F)(F)F)NC(=O)[C@H](CCCNC(=N)N)NC(=O)[C@H](C)NC(=O)[C@@H](NC(=O)[C@H](CCC(N)=O)NC(=O)[C@H](CCCCN)NC(=O)[C@@H](N)[C@@H](C)O)[C@@H](C)O)[C@@H](C)O)C(=O)O	4.31	–	inactive	–	–
C=CC(=O)NCCCC[C@H](NC(=O)[C@H](CCCNC(=N)N)NC(=O)[C@H](C)NC(=O)[C@@H](NC(=O)[C@H](CCC(N)=O)NC(=O)[C@H](CCCCN)NC(=O)[C@@H](N)[C@@H](C)O)[C@@H](C)O)C(=O)N[C@@H](CO)C(=O)N[C@H](C(=O)NCC(=O)NCC(=O)N[C@@H](CCCCN)C(=O)N[C@@H](C)C(=O)O)[C@@H](C)O	4.86	–	–	55%	–
CC#CC(=O)NCCCC[C@H](NC(=O)[C@H](CCCNC(=N)N)NC(=O)[C@H](C)NC(=O)[C@@H](NC(=O)[C@H](CCC(N)=O)NC(=O)[C@H](CCCCN)NC(=O)[C@@H](N)[C@@H](C)O)[C@@H](C)O)C(=O)N[C@@H](CO)C(=O)N[C@H](C(=O)NCC(=O)NCC(=O)N[C@@H](CCCCN)C(=O)N[C@@H](C)C(=O)O)[C@@H](C)O	4.69	30%	–	–	50%
C/C=C(\C)C(=O)NCCCC[C@H](NC(=O)[C@H](CCCNC(=N)N)NC(=O)[C@H](C)NC(=O)[C@@H](NC(=O)[C@H](CCC(N)=O)NC(=O)[C@H](CCCCN)NC(=O)[C@@H](N)[C@@H](C)O)[C@@H](C)O)C(=O)N[C@@H](CO)C(=O)N[C@H](C(=O)NCC(=O)NCC(=O)N[C@@H](CCCCN)C(=O)N[C@@H](C)C(=O)O)[C@@H](C)O	4.33	39%	–	–	–

Continued by rising pKd (Protein AF-9), values first:

pKd (Protein AF-9)	Activity [1]	Activity [2]	Activity ([1]; filed as activator)	Activity ([2]; filed as activator)	Compound
4.87	–	–	75%	–	CC/C=C/C(=O)NCCCC[C@H](NC(=O)[C@H](CCCNC(=N)N)NC(=O)[C@H](C)NC(=O)[C@@H](NC(=O)[C@H](CCC(N)=O)NC(=O)[C@H](CCCCN)NC(=O)[C@@H](N)[C@@H](C)O)[C@@H](C)O)C(=O)N[C@@H](CO)C(=O)N[C@H](C(=O)NCC(=O)NCC(=O)N[C@@H](CCCCN)C(=O)N[C@@H](C)C(=O)O)[C@@H](C)O
5.11	–	–	60%	–	C/C=C/C(=O)NCCCC[C@H](NC(=O)[C@H](CCCNC(=N)N)NC(=O)[C@H](C)NC(=O)[C@@H](NC(=O)[C@H](CCC(N)=O)NC(=O)[C@H](CCCCN)NC(=O)[C@@H](N)[C@@H](C)O)[C@@H](C)O)C(=O)N[C@@H](CO)C(=O)N[C@H](C(=O)NCC(=O)NCC(=O)N[C@@H](CCCCN)C(=O)N[C@@H](C)C(=O)O)[C@@H](C)O
5.29	–	inactive	–	–	C[C@H](NC(=O)[C@H](CCCCN)NC(=O)CNC(=O)CNC(=O)[C@@H](NC(=O)[C@H](CO)NC(=O)[C@H](CCCCNC(=O)/C=C/c1ccccc1)NC(=O)[C@H](CCCNC(=N)N)NC(=O)[C@H](C)NC(=O)[C@@H](NC(=O)[C@H](CCC(N)=O)NC(=O)[C@H](CCCCN)NC(=O)[C@@H](N)[C@@H](C)O)[C@@H](C)O)[C@@H](C)O)C(=O)O
